Measured values reported in PMC8471592, “Characterization of Conserved and Promiscuous Human Rhinovirus CD4 T Cell Epitopes” (Cells, 2021).
Ends that are not written are not given here.

Key:
HLA-DRB1*09:01 = HLA-DRB1*09:01 (Homo sapiens, UniProt P01903+P01911, A100R/A103E/D57H/D86V/F55Y/F60I/F76Y/I96F/K127E/L162R/M171V/P40D/Q125H/Q99R/R33Q/R42F/S133A/S66N/T210M/V115G/W38K/Y107V/Y59G/Y89S); test: Competitive inhibition HLA II binding assay; conditions: competition with radiolabeled probe peptide, purified HLA II, 0.3 nM–30 µM, 2-day incubation; mean of three or more independent assays
HLA-DRB1*04:04 = HLA-DRB1*04:04 (Homo sapiens, UniProt P01903+P01911, A100R/A169T/F76Y/I96L/K127E/L162R/M171V/N62H/P40V/Q125Y/R42H/S133A/S149N/S66Y/V209L/W38E); test: Competitive inhibition HLA II binding assay; conditions: competition with radiolabeled probe peptide, purified HLA II, 0.3 nM–30 µM, 2-day incubation; mean of three or more independent assays
HLA-DRB1*11:04 = HLA-DRB1*11:04 (Homo sapiens, UniProt P01903+P01911, A100R/A169T/A87E/I96F/K41T/L162R/M171V/P40S/Q125H/Q178H/Q39Y/Q99D/R42S/S66Y/T262R/W38E); test: Competitive inhibition HLA II binding assay; conditions: competition with radiolabeled probe peptide, purified HLA II, 0.3 nM–30 µM, 2-day incubation; mean of three or more independent assays
HLA-DRB1*13:02 = HLA-DRB1*13:02 (Homo sapiens, UniProt P01903+P01911, A100E/A169T/K41T/L162R/M171V/P40S/Q125H/Q178H/Q39Y/Q99D/R42S/S66N/T262R/V115G/W38E/Y61H); test: Competitive inhibition HLA II binding assay; conditions: competition with radiolabeled probe peptide, purified HLA II, 0.3 nM–30 µM, 2-day incubation; mean of three or more independent assays
HLA-DRB1*08:02 = HLA-DRB1*08:02 (Homo sapiens, UniProt P01903+P01911, A100R/A103L/A169T/F76Y/H45Y/I96F/K41T/L162R/M171V/P40S/Q125H/Q178H/Q39Y/Q99D/R218S/R42G/S66Y/V115G/W38E); test: Competitive inhibition HLA II binding assay; conditions: competition with radiolabeled probe peptide, purified HLA II, 0.3 nM–30 µM, 2-day incubation; mean of three or more independent assays
HLA-DRB1*07:01 = HLA-DRB1*07:01 (Homo sapiens, UniProt P01903+P01911, A100R/A102G/A103Q/D57E/D86V/E43K/F76Y/K127E/L162R/M171V/P40G/Q125H/Q99D/R33Q/R42Y/R54Q/S133A/S66F/T210M/V115G/Y107V/Y59L/Y89S); test: Competitive inhibition HLA II binding assay; conditions: competition with radiolabeled probe peptide, purified HLA II, 0.3 nM–30 µM, 2-day incubation; mean of three or more independent assays
HLA-DRB1*11:01 = HLA-DRB1*11:01 (Homo sapiens, UniProt P01903+P01911, A100R/A169T/A87E/I96F/K41T/L162R/M171V/P40S/Q125H/Q178H/Q39Y/Q99D/R42S/S66Y/T262R/V115G/W38E); test: Competitive inhibition HLA II binding assay; conditions: competition with radiolabeled probe peptide, purified HLA II, 0.3 nM–30 µM, 2-day incubation; mean of three or more independent assays
HLA-DRB1*03:01 = HLA-DRB1*03:01 (Homo sapiens, UniProt P01903+P01911, A100K/A102G/A103R/A169T/F55Y/I96L/K41T/L162R/M171V/P40S/Q125H/Q178H/Q39Y/R42S/S66N/T106N/T262R/W38E/Y61H); test: Competitive inhibition HLA II binding assay; conditions: competition with radiolabeled probe peptide, purified HLA II, 0.3 nM–30 µM, 2-day incubation; mean of three or more independent assays
[1] = tested on: PBMCs from three HLA II-typed donors; test: IFNγ-ELISPOT assay; type: cell-based, human; conditions: 10 μM peptide, 1 × 10^5 PBMCs, 24 h, triplicate; positive if >60 SFC/10^6 PBMCs after background subtraction
Description: Peptide-specific IFNγ production by PBMCs from HLA II-typed donors was detected by standard IFNγ ELISPOT assays. Briefly, 96-well PVDF plates (Millipore, Darmstadt, Germany) were coated with anti-IFNγ (1-D1K mAb, Mabtech, Stockholm, Sweden) and 1 × 10^5 PBMCs were pleated with RPMI 1640 (Gibco, Waltham, MA, USA), supplemented with 10% of fetal bovine serum (Gibco, Waltham, MA, USA), 100 µg/mL streptomycin, 100 U/mL penicillin, and 2 mM L-glutamine (Lonza, Basel, Switzerland). Individual RV peptides were added at 10 μM. Plates were incubated at 37 °C and 5% CO2 and, after 24 h, were processed according to the manufacturer’s instructions. PBMCs incubated with 10 μg/mL phytohemagglutinin (PHA) or without any stimuli were used as positive and background controls, respectively. The assay was run in triplicate for each individual peptide. The number of IFNγ-secreting cells (spot forming cells (SFCs)) was determined with an ELISPOT reader (ImmunoSpot 5.0, CTL Analyzers, Shaker Heights, OH, USA).

Compound | IC50 (HLA-DRB1*09:01) [nM] | IC50 (HLA-DRB1*04:04) [nM] | IC50 (HLA-DRB1*11:04) [nM] | IC50 (HLA-DRB1*13:02) [nM] | IC50 (HLA-DRB1*08:02) [nM] | IC50 (HLA-DRB1*07:01) [nM] | IC50 (HLA-DRB1*11:01) [nM] | IC50 (HLA-DRB1*03:01) [nM] | IFNγ recall response in ELISPOT [1]
CC[C@H](C)[C@H](NC(=O)CNC(=O)[C@H](CCCCN)NC(=O)[C@H](CCC(=O)O)NC(=O)[C@H](CC(C)C)NC(=O)[C@@H](NC(=O)[C@H](CC(=O)O)NC(=O)[C@H](CCCCN)NC(=O)[C@@H](N)C(C)C)C(C)C)C(=O)N1CCC[C@H]1C(=O)N[C@H](C(=O)N[C@@H](CC(C)C)C(=O)N[C@@H](CCC(N)=O)C(=O)N[C@@H](CO)C(=O)N1CCC[C@H]1C(=O)N[C@H](C(=O)N[C@H](C(=O)N[C@@H](CCC(=O)O)C(=O)O)C(C)C)[C@@H](C)O)[C@@H](C)O [RVA57–74] | 9540 | 4100 | – | – | – | – | – | – | –
CC[C@H](C)[C@H](NC(=O)[C@@H](NC(=O)[C@H](CO)NC(=O)[C@@H](N)CC(=O)O)[C@@H](C)O)C(=O)N[C@H](C(=O)N[C@@H](CO)C(=O)N[C@@H](CCC(N)=O)C(=O)N[C@@H](CC(=O)O)C(=O)N[C@H](C(=O)N[C@@H](C)C(=O)N[C@@H](CC(N)=O)C(=O)N[C@@H](C)C(=O)N[C@H](C(=O)N[C@H](C(=O)NCC(=O)N[C@@H](Cc1ccc(O)cc1)C(=O)NCC(=O)N[C@H](C(=O)O)C(C)C)C(C)C)C(C)C)C(C)C)[C@@H](C)O [RVA89–106] | 1200 | 19 | 5820 | 6650 | 5170 | 865 | – | – | –
CC(C)C[C@H](NC(=O)[C@H](Cc1ccc(O)cc1)NC(=O)[C@H](Cc1c[nH]cn1)NC(=O)[C@@H]1CCCN1C(=O)[C@H](Cc1c[nH]c2ccccc12)NC(=O)[C@@H](NC(=O)CNC(=O)[C@H](Cc1ccc(O)cc1)NC(=O)CNC(=O)[C@@H](NC(=O)[C@@H](NC(=O)[C@H](C)NC(=O)[C@H](CC(N)=O)NC(=O)[C@H](C)NC(=O)[C@@H](N)C(C)C)C(C)C)C(C)C)C(C)C)C(=O)N[C@H](C(=O)N1CCC[C@H]1C(=O)N[C@@H](CCC(=O)O)C(=O)O)[C@@H](C)O [RVA97–114] | 11500 | 5580 | 19700 | 11600 | 453 | 1300 | 1100 | – | –
DLPYVTYLKDELR [RVC1835–1847] | – | 773 | – | – | 2600 | – | – | – | –
GLEPLDLNTSAGFPYV [RVC1791–1806] | – | 1100 | – | 62 | – | 1200 | – | 8400 | –
INLRTNNSSTIVVPYIN [RVC258–274] | 840 | 3430 | – | 40 | – | 411 | – | – | –
KEKFRDIRRFIP [RVC1582–1592] | 2730 | 8680 | 101 | – | 44 | 13000 | 33 | – | –
YEIQESEYYPKHIQY [RVC945–959, RV C 2A peptide, position 945–959] | – | – | – | – | – | – | – | – | able to stimulate IFNγ production by T cells in at least one donor
YGDDVIFSY [RVA2029–2037, reference compound] | – | – | – | – | – | – | – | – | not immunogenic in IFNγ ELISPOT assays
